In patent US20120316203A1, “Compositions and Methods for Inhibition of Cancers” (THE OHIO STATE UNIVERSITY RESEARCH FOUNDATION, priority 2009, published 2012):
Entries after “also recorded” stand apart in the source; their conditions may differ.

Columns and labels:
A2780 and HSMC cells = assay: Viability of cells exposed to stand-alone N-hydroxypyrroline or nitroxide (MTT); assay type: cell-based, human; conditions: 24 h
Experimental: (§1) Cell viability was determined by a colorimetric assay using MTT. In the mitochondria of living cells, yellow MTT undergoes a reductive conversion to formazan, giving a purple color. Cells, grown to […] confluence in 75-mm flasks, were trypsinized, counted, seeded in 96-well plates with an average population of 7000 cells/well, incubated overnight, and then treated with the DAPs (H-4073, HO-3867, H4318, or HO-4200; […]) for 24 h. All experiments were done using eight replicates and repeated at least three times. Cell viability was expressed as the percentage of MIT viability of untreated cells.
To determine the role of the N-hydroxypyrroline function in the cytotoxicity, we additionally evaluated the effects of 3-CPH (a stand-alone analog of N-hydroxypyrroline) and 3-CP (a nitroxide version 3-CPH) on A27180 and HSMC cells. […] Overall the viability results implicate the diarylidenyl piperidone group in inducing cytotoxicity and the N-hydroxypyrroline group in protecting noncancerous cells.

[1] = compared with cisplatin and curcumin; cited from earlier work
[2] = test system: A2780 and other cancer cells; assay: Metabolic conversion to nitroxide in cancer cells (EPR); assay type: in vitro ADME, human; conditions: 37° C., EPR
Source text: The N-hydroxypyrroline (—NOH) moiety is capable of undergoing a reversible one-electron oxidation to its nitroxide form (—NO; FIG. 9A), which is paramagnetic and detectable by EPR spectroscopy.

[3] = test system: hOSE cells, HSMC, and HAEC; assay: Cytotoxicity of DAPs to noncancerous cells (MTT); assay type: cell-based, human
Experimental: as §1

[4] = Superoxide radical-scavenging by EPR (xanthine/xanthine oxidase, DEPMPO competition); conditions: 100 μM compound versus 1 mM DEPMPO
Experimental: Electron paramagnetic resonance (EPR) spectroscopy was used to quantitatively determine the relative superoxide-scavenging ability of the DAPs in comparison with DEPMPO, a known superoxide scavenger. Superoxide radicals were generated using an aerated solution of PBS (pH 7.4) containing xanthine (0.2 mM), xanthine oxidase (0.02 U/ml), and diethylenetriamine pentaacetic acid (0.1 mM). The superoxide radicals (O2^−) generated by the xanhine-xanthine oxidase reaction were reacted with DEPMPO (1 mM) to form a paramagnetic adduct (DEPMPO-OOH), which was detected using X-band (9.8 GHz) EPR spectroscopy. In separate experimental groups, […], or SOD (500 U/ml) was added to the reaction mixture. […] The generation of the DEPMPO-OOH adduct was measured at 10 min after initiation of the reaction.
Both N-hydroxypyrroline and nitroxide have antioxidant properties including SOD- and catalase-mimetic activity. Therefore, we determined the superoxide radical-scavenging ability of DAPs using a competitive reaction in the presence of DEPMPO. Superoxide radicals were generated using an aerobic solution of xanthine and xanthine oxidase and detected as DEPMPO-OOH adduct by EPR spectroscopy. The DAP compounds (100 μM) were used to compete with 1 mM DEPMPO for the superoxide ions. SOD (4.2 μM) was used as a positive control.

HSMC = assay: Intracellular ROS by DCF fluorescence, HSMC; assay type: cell-based, human; conditions: 10 μM, 12 h
Experimental: The ROS levels in cells treated with DAPs were determined using H2DCF-DA, a membrane-permeative fluorogenic probe. The acetate and acetoxymethyl ester groups of this probe are enzymatically cleaved inside living cells. The probe can then be oxidized by intracellular oxidants (ROS) to give a product, DCF, which emits a strong, green fluorescence (λex=504 nm; λem=529 nm). The fluorescence intensity is proportional to the level of cellular oxidants. […] The cells were further incubated in the dark for 20 min and washed with protein-free medium, and then fluorescence images were immediately captured with a Nikon Eclipse TE2000-U camera system using excitation/emission at 495/520 nm. The captured images were then analyzed using MetaMorph image analysis software.

hOSE cells = assay: Cell viability by MTT assay, noncancerous hOSE control cells; assay type: cell-based, human; conditions: 20 μmol/L
Experimental: (§2) Cell viability was determined by a colorimetric assay using MTT. In the mitochondria of living cells, yellow MTT undergoes a reductive conversion to formazan, producing a purple color. Cells, grown to […] confluence in 75-mm flasks, were trypsinized, counted, seeded in 96-well plates with an average population of 7,000 cells per well, incubated overnight, and then treated with curcumin, H-4073, or HO-3867 for 24 hours. All experiments were done using eight replicates and, repeated at least thrice.

A2780 cells [5] = assay: Intracellular ROS by DCF fluorescence, A2780; assay type: cell-based, human; conditions: 5 or 10 μM, 12 h
Experimental: The ROS levels in cells treated with DAPs were determined using H2DCF-DA, a membrane-permeative fluorogenic probe. The acetate and acetoxymethyl ester groups of this probe are enzymatically cleaved inside living cells. The probe can then be oxidized by intracellular oxidants (ROS) to give a product, DCF, which emits a strong, green fluorescence (λex=504 nm; λem=529 nm). The fluorescence intensity is proportional to the level of cellular oxidants. Cells, grown to 80% confluence on 6-mm glass coverslips, were treated with […] H-4073, HO-3867, H-4318, or HO-4200 for 12 h, followed by incubation with H2DCF-DA. The cells were further incubated in the dark for 20 min and washed with protein-free medium, and then fluorescence images were immediately captured with a Nikon Eclipse TE2000-U camera system using excitation/emission at 495/520 nm. The captured images were then analyzed using MetaMorph image analysis software.

[6] = test system: A2780R, PA-1, SKOV3, OV4, and OVCAR3 human ovarian cancer cell lines; assay: Cell viability by MTT assay, other ovarian cancer cell lines; assay type: cell-based; conditions: 10 μmol/L; 24 h
Experimental: as §2

A2780 cells [7] = assay: Cell proliferation by clonogenic assay; assay type: cell-based, human; conditions: 24 hours treatment, 7 days growth
Experimental: Cell survival was assessed by clonogenic assay. Cells at […] confluence were trypsinized, rinsed, seeded onto 60-mm dishes (5×10^4 cells per dish), grown for 24 hours at 37° C., and treated afterward with H-4073 or HO-3867 for 24 hours. Nontreated cells served as controls. After treatment, the cells were washed twice with PBS, trypsinized, counted, and plated in 60-mm dishes in triplicate and incubated for an additional 7 days. The colonies were then stained with crystal violet (in ethyl alcohol) and counted using an automated colony counter (ColCount, Oxford Optronix). Each experiment was repeated at least five times.

A2780 cells [8] = assay: Cell viability by MTT assay, A2780 cells; assay type: cell-based, human; conditions: 24 hours, dose series
Experimental: as §2

[9] = test system: A2780, A2780R, MCF-7, HCT-116, PC-3, HepG2, A549, and SCC4 human cancer cell lines; assay: Cytotoxicity of DAPs to cancer cells (MTT); assay type: cell-based; conditions: 10 μM, 24 h
Experimental: as §1

CC1(C)CC(C(N)=O)C(C)(C)N1[O] (stereo not shown) [3-CP, 3-carbamoyl proxyl]
cell viability of A2780 and HSMC cells (A2780 and HSMC cells): did not show any significant effect

CC1(C)CC(C(N)=O)C(C)(C)N1O (stereo not shown) [3-CPH, N-hydroxy-3-carbamoyl proxyl]
cell viability of A2780 and HSMC cells (A2780 and HSMC cells): did not show any significant effect

O=C1/C(=C/c2ccccc2F)CNC/C1=C\c1ccccc1F [DAP-F(o)]
IC50 [1]: lower than both cisplatin and curcumin

O=C1/C(=C/c2ccc(F)cc2)CNC/C1=C\c1ccc(F)cc1 [H-4073, (3E,5E)-3,5-Bis(4-fluorobenzylidene)piperidin-4-one]
EPR spectrum (nitroxide signal) after incubation with A2780 cells [2]: did not show any EPR signal | viability of hOSE cells ([3]; same dose for both compounds): significantly reduced | effect on the superoxide adduct level [4]: did not show any significant effect | intracellular ROS generation (DCF fluorescence) in HSMC (HSMC): induced significant ROS generation | cytotoxicity to hOSE cells (hOSE cells): significant cytotoxicity | intracellular ROS generation (DCF fluorescence) in A2780 cells (A2780 cells [5]): induced significant ROS generation | cytotoxicity in other human ovarian cancer cell lines [6]: equally and significantly toxic | number of colonies (colony-forming ability) (A2780 cells [7]): dose-dependent reduction in the number of colonies | cytotoxicity, viability of A2780 cells (A2780 cells [8]): significantly higher toxicity when compared with curcumin | cell viability of human cancer cell lines [9]: substantial loss of cell viability; also recorded: higher toxicity compared to HO-3867 or HO-4200

O=C1/C(=C/c2ccc(C(F)(F)F)cc2)CNC/C1=C\c1ccc(C(F)(F)F)cc1 [H-4318, (3E,5E)-3,5-bis(4-trifluoromethylbenzylidene)piperidin-4-one]
EPR spectrum (nitroxide signal) after incubation with A2780 cells [2]: did not show any EPR signal | effect on the superoxide adduct level [4]: did not show any significant effect | intracellular ROS generation (DCF fluorescence) in HSMC (HSMC): induced significant ROS generation | intracellular ROS generation (DCF fluorescence) in A2780 cells (A2780 cells [5]): induced significant ROS generation | cell viability of human cancer cell lines [9]: substantial loss of cell viability; also recorded: higher toxicity compared to HO-3867 or HO-4200

CC1(C)C=C(CN2C/C(=C\c3ccc(C(F)(F)F)cc3)C(=O)/C(=C/c3ccc(C(F)(F)F)cc3)C2)C(C)(C)N1O [HO-4200, 1-[(1-oxyl-2,2,5,5-tetramethyl-2,5-dihydro-1H-pyrrol-3-yl)-methyl]-(3E,5E)-3,5-bis(4-trifluoromethylbenzylidene)piperidin-4-one]
cell viability of noncancerous (healthy) human cell lines ([3]; 10 NM, 24-h incubation): significantly less toxic | diminution of the DEPMPO-OOH concentration [4]: −50% | amounts of ROS in HSMC compared to A2780 cells (HSMC): significantly lower amounts of ROS | intracellular ROS generation (DCF fluorescence) in HSMC (HSMC): induced significant ROS generation | intracellular ROS generation (DCF fluorescence) in A2780 cells (A2780 cells [5]): induced significant ROS generation | cell viability of human cancer cell lines [9]: substantial loss of cell viability

COc1cc(/C=C/C(=O)CC(=O)/C=C/c2ccc(O)c(OC)c2)ccc1O [curcumin, Curcumin, reference compound]
cytotoxicity, viability of A2780 cells (A2780 cells [8]): dose-dependent cytotoxicity
